The source of these data is PMC6413231, “o-Vanillin Derived Schiff Bases and Their Organotin(IV) Compounds: Synthesis, Structural Characterisation, In-Silico Studies and Cytotoxicity” (International Journal of Molecular Sciences, 2019).

Read-outs that look alike come from different tables or passages of the source.

Data set [1] has as its system B-DNA (PDB ID: 1BNA) dodecamer d(CGCGAATTCGCG)2. Also noted: method as in PMID 27649452. The conditions noted are these: comparison value for cisplatin; cited from earlier work.
For data set [2], the system named is U87 (glioblastoma) cancer cells. Kind of data set: MTT growth inhibition assay, U87. Format: cell-based. To be noted: 72 h, ± standard error, read-out: Growth Inhibition Concentration, GI50. As for the experimental part: (§1) The Schiff bases and their organotin(IV) compounds were screened for in vitro cytotoxicity against a panel of 12 cancer cell lines: EJ-28 (muscle invasive bladder), RT-112 (minimum-invasive bladder), HT29 (colon), U87 and SJ-G2 (glioblastoma), MCF-7 (breast), A2780 (ovarian), H460 (lung), A431 (skin), DU145 (prostate), BE2-C (neuroblastoma), MIA (pancreatic) and one normal breast cell line (MCF-10A) using the MTT metabolic assay (Figure 6). After 72 h of incubation, a dose-dependent […] effect towards the cancer cell lines was measured at very low micromolar (µM) concentrations of the compounds. The growth inhibition concentration of the Schiff bases and their organotin(IV) compounds required to inhibit 50% cell proliferation relative to the cells that were treated with DMSO (control) are given in Table 2. The stability of these compounds was assessed in DMSO as well as in a mixture of DMSO-H2O. The absorbance obtained from UV-vis spectroscopy analysis was monitored for 72 h, and an unchanged pattern in the spectra was indicative that the compounds were stable in both the solvent systems tested.
(§2) For HT29 (colon), U87 and SJ-G2 (glioblastoma), MCF-7 (breast), A2780 (ovarian), H460 (lung), A431 (skin), Du145 (prostate), BE2-C (neuroblastoma), MIA (pancreas) cell lines and one normal breast cell line, MCF-10A (normal breast), the MTT assays were performed using the following method:
(§3) Stock solutions were prepared as follows and stored at −20 °C: Trial compounds were stored as 10 mM solutions in DMSO. All cell lines were cultured in a humidified atmosphere 5% CO2 at 37 °C. The cancer cell lines were maintained in Dulbecco’s modified Eagle’s medium (DMEM) (Trace Biosciences) supplemented with 10% foetal bovine serum, 10 mM sodium bicarbonate, penicillin (100 IU/mL), streptomycin (100 μg/mL) and glutamine (4 mM). The normal cell line, MCF-10A was cultured in DMEM:F12 (1:1) cell culture media, 5% heat inactivated horse serum, supplemented with penicillin (50 IU/mL), streptomycin (50 μg/mL), 20mM Hepes, L-glutamine (2 mM), epidermal growth factor (20 ng/mL), hydrocortisone (500 ng/mL), cholera toxin (100 ng/mL) and insulin (10 μg/mL).
(§4) Cells in logarithmic growth were transferred to 96-well plates. Cytotoxicity was determined by plating cells in duplicate in 100 μL medium at a density of 2500–4000 cells/well. On day 0 (24 h after plating), when the cells were in logarithmic growth, 100 μL medium, with or without the test agent, was added to each well. After 72 h drug exposure, growth inhibitory effects were evaluated using the MTT (3-[4,5-dimethylthiazol-2-yl]-2,5-diphenyltetrazolium bromide) assay and absorbance read at 540 nm. Percentage growth inhibition was determined at a fixed drug concentration of 25 μM. A value of 100% was indicative of complete cell growth inhibition. Those analogues showing appreciable percentage growth inhibition underwent further dose-response analysis allowing for the calculation of a GI50 value. This value is the drug concentration at which cell growth is 50% inhibited based on the difference between the optical density values on day 0 and those at the end of drug exposure.
In general terms: Tetrazolium assays rely on reduction of a dye to a coloured formazan, in cell work by metabolically active cells.

Data set [3] has as its system EJ-28 (muscle invasive bladder) cancer cells. Kind of data set: MTT cytotoxicity assay, EJ-28. The data set is classed as cell-based, human. The conditions noted are these: EJ-28 cells, 72 h, ± standard error, read-out: Growth Inhibition Concentration, GI50. As for the experimental part: as §1
(§5) The inhibitory effect of the synthesised compounds on the growth of bladder (EJ-28 and RT-112) cancer cells was evaluated by MTT assay. […] RT-112 and EJ-28, human bladder cancer cell lines used in this study (ATCC, Manassas, VA, USA) were cultured in RPMI-1640 (High glucose) medium supplemented with 10% fetal bovine serum containing 1% penicillin. The cells were cultured at 37 °C in a humidified atmosphere of 5% CO2 in air. Cells were seeded in 96-well plates at 6000 cells per well for 24 h, then they were treated with different concentrations of compounds for 72 h. The medium was subsequently removed and the wells were washed with 200 µL of phosphate buffer saline. Aliquots of 20 µL of 3-(4,5-dimethylthiazol-2-yl)-2,5-diphenyltetrazolium bromide (MTT) was added to each well and incubated for 4 h at 37 °C. Aliquots of 200 µL of media was then removed from each well and 200 µL of DMSO was added. Optical density (OD) was measured using an ELISA plate reader at 570 nm. Control wells (100% viability), containing media and DMSO, were included in all the experiments. All data points represented an average of triplicate assays. Cytotoxicity was expressed as CD50, i.e., the concentration that reduced the absorbance of treated cells by 50% with reference to the control (untreated cells).

The subject of data set [4] is A2780 (ovarian) cancer cells. The experiment in a line: MTT growth inhibition assay, A2780. Format: cell-based. To be noted: 72 h, ± standard error, read-out: Growth Inhibition Concentration, GI50. The method, then: as §1, §2, §3, §4
Data set [5] deals with Du145 (prostate) cancer cells. The experiment in a line: MTT growth inhibition assay, Du145. To be noted: ± standard error, read-out: Growth Inhibition Concentration, GI50. The data set is classed as cell-based. As for the experimental part: as §1, §2, §3, §4
In data set [6] the test system is HT29 (colon) cancer cells. The experiment in a line: MTT growth inhibition assay, HT29. To be noted: ± standard error, read-out: Growth Inhibition Concentration, GI50. The data set is classed as cell-based. The method, then: as §1, §2, §3, §4
Data set [7] concerns RT-112 (minimum-invasive bladder) cancer cells. Kind of data set: MTT cytotoxicity assay, RT-112. Format: cell-based, human. To be noted: RT-112 cells, 72 h, ± standard error, read-out: Growth Inhibition Concentration, GI50. The method, then:
as §1, §5

Data set [8] has as its system A431 (skin) cancer cells. The experiment in a line: MTT growth inhibition assay, A431. Format: cell-based. To be noted: ± standard error, read-out: Growth Inhibition Concentration, GI50. As for the experimental part:
as §1, §2, §3, §4

Data set [9] concerns H460 (lung) cancer cells. The experiment in a line: MTT growth inhibition assay, H460. Format: cell-based. The conditions noted are these: ± standard error, read-out: Growth Inhibition Concentration, GI50. As for the experimental part: as §1, §2, §3, §4
In data set [10] the test system is MCF-7 (breast) cancer cells. The experiment in a line: MTT growth inhibition assay, MCF-7. To be noted: 72 h, ± standard error, read-out: Growth Inhibition Concentration, GI50. Format: cell-based. The method, then:
as §1, §2, §3, §4

Data set [11] relates to BE2-C (neuroblastoma) cancer cells. The experiment in a line: MTT growth inhibition assay, BE2-C. The conditions noted are these: 72 h, ± standard error, read-out: Growth Inhibition Concentration, GI50. The data set is classed as cell-based. The method, then: as §1, §2, §3, §4
In data set [12] the test system is SJ-G2 (glioblastoma) cancer cells. The experiment in a line: MTT growth inhibition assay, SJ-G2. The data set is classed as cell-based. The conditions noted are these: MTT, 72 h, ± standard error, read-out: Growth Inhibition Concentration, GI50. The method, then: as §1, §2, §3, §4
The test system of data set [13] is MIA (pancreatic) cancer cells. Kind of data set: MTT growth inhibition assay, MIA. The data set is classed as cell-based. The conditions noted are these: 72 h, ± standard error, read-out: Growth Inhibition Concentration, GI50. The method, then: as §1, §2, §3, §4
In data set [14] the test system is MCF-10A (normal breast) cell line. Kind of data set: MTT growth inhibition assay, MCF10A. Format: cell-based. To be noted: Homo sapiens, MCF-10A, MCF10A normal breast cells, 72 h, ± standard error, read-out: Growth Inhibition Concentration, GI50. As for the experimental part:
as §1, §2, §3, §4

[15] abbreviates: Homo sapiens, MCF7, MCF-7 cells.

In the case of `N.N.[Cl][Pt][Cl]` [Cisplatin, reference compound], the “lowest binding energy (docking with DNA)” value in data set [1] is -8.65 kcal/mol. For the same molecule, the GI50 is 4 ± 1 µM in data set [2]; 3.97 ± 0.48 µM in data set [3]; 1 ± 0.1 µM in data set [4]; 1.2 ± 0.1 µM in data set [5] (72 h); 11 ± 2 µM in [6] (72 h); 3.56 ± 0.88 µM in data set [7]. Besides, the GI50 in data set [8] (72 h) amounted to 2.4 ± 0.3 µM; in data set [9] (72 h), 0.9 ± 0.2 µM; in data set [10] (MCF-7 cells), 6.5 ± 0.8 µM; in data set [11], 1.9 ± 0.2 µM; in data set [12], 0.4 ± 0.1 µM; in data set [13], 8 ± 1 µM.
A word on the melting point: it is the temperature of the solid-liquid transition. With `COc1cccc(/C=N/NC(=S)SCc2ccccc2C)c1O` [S2MoVaH, S-2-Methybenzyl-β-N-(2-hydroxy-3-methoxybenzylmethylene) Dithiocarbazate], the melting point is 180 to 183 °C. Also, in data set [2] (Homo sapiens, U-87 MG), the GI50 was 4.3 ± 0.3 µM. In addition, the GI50 in data set [3] (Homo sapiens) stood at 3.4 ± 0.47 µM. Further, in [4] (Homo sapiens), the GI50 is 3.2 ± 0.15 µM. In data set [5] (Homo sapiens, DU-145, 72 h), the GI50 came out at 4.1 ± 0.09 µM. Besides, in [6] (Homo sapiens, HT-29, 72 h), the GI50 amounted to 3.9 ± 0.71 µM. The GI50 in [7] (Homo sapiens) was determined as 4.6 ± 0.45 µM. For the same molecule, in data set [14], the GI50 stood at 3.1 ± 0.07 µM. For the same molecule, the GI50 in data set [8] (Homo sapiens, A-431, 72 h) worked out at 3.8 ± 0.03 µM. The GI50 in [9] (Homo sapiens, NCI-H460, 72 h) came to 4.3 ± 0.12 µM. Also, the GI50 in [10] (setting [15]) worked out at 2.7 ± 0.21 µM. The GI50 in data set [11] (Homo sapiens, BE(2)-C) is 3.1 µM. In addition, the GI50 in data set [12] was found to be 3 ± 0.09 µM. The GI50 in data set [13] (Pancreatic cancer cell) is 4.9 ± 0.37 µM.
As for `COc1cccc(/C=N/NC(=S)SCc2ccc(C)cc2)c1O` [S4MoVaH, S-4-Methybenzyl-β-N-(2-hydroxy-3-methoxybenzylmethylene)dithiocarbazate], the melting point was in the range of 177 to 178 °C. For the same molecule, in data set [2] (Homo sapiens, U-87 MG), the GI50 was determined as 3.9 µM. Moreover, the GI50 in data set [3] (Homo sapiens) came out at 3.6 ± 0.44 µM. In addition, the GI50 in data set [4] (Homo sapiens) turned out to be 3.1 ± 0.4 µM. Besides, the GI50 in data set [5] (Homo sapiens, DU-145, 72 h) is 5.4 ± 0.23 µM. In addition, the GI50 in data set [6] (Homo sapiens, HT-29, 72 h) came out at 8 ± 3.5 µM. Besides, in [7] (Homo sapiens), the GI50 was determined as 3.2 ± 0.51 µM. Further, in [14], the GI50 is 3.5 ± 0.23 µM. In addition, in [8] (Homo sapiens, A-431, 72 h), the GI50 worked out at 4.2 ± 0.74 µM. For the same molecule, the GI50 in [9] (Homo sapiens, NCI-H460, 72 h) was determined as 5.5 ± 0.73 µM. Also, the GI50 in [10] (setting [15]) came to 3.5 µM. Also, the GI50 in data set [11] (Homo sapiens, BE(2)-C) turned out to be 3.6 ± 0.27 µM. Moreover, the GI50 in data set [12] stood at 3.3 ± 0.87 µM. Also, in data set [13] (Pancreatic cancer cell), the GI50 stood at 11 ± 2.3 µM.
Regarding `COc1cccc(/C=N/NC(=S)SCc2ccccc2)c1O` [SBoVaH, S-Benzyl-β-N-(2-hydroxy-3-methoxybenzylmethylene) Dithiocarbazate], the melting point fell in the range of 173 to 174 °C. The GI50 in data set [2] (Homo sapiens, U-87 MG) is 3.1 ± 0.26 µM. Also, in data set [3] (Homo sapiens), the GI50 amounted to 3.1 ± 0.2 µM. Moreover, in data set [4] (Homo sapiens), the GI50 is 3 ± 0.06 µM. Moreover, the GI50 in data set [5] (Homo sapiens, DU-145, 72 h) was 3.4 ± 0.3 µM. Moreover, the GI50 in data set [6] (Homo sapiens, HT-29, 72 h) came to 2.2 ± 0.033 µM. In addition, the GI50 in data set [7] (Homo sapiens) is 3.7 ± 0.57 µM. Also, the GI50 in data set [14] came to 3 ± 0.07 µM. Further, in data set [8] (Homo sapiens, A-431, 72 h), the GI50 was 3 ± 0.15 µM. Also, the GI50 in data set [9] (Homo sapiens, NCI-H460, 72 h) came to 3.3 ± 0.21 µM. Moreover, in data set [10] (setting [15]), the GI50 came to 2.5 ± 0.12 µM. In addition, in [11] (Homo sapiens, BE(2)-C), the GI50 amounted to 2.8 ± 0.2 µM. For the same molecule, in [12], the GI50 came to 2.4 ± 0.26 µM. Also, the GI50 in data set [13] (Pancreatic cancer cell) came out at 4.5 ± 0.25 µM.
